Data taken from patent US20140011799A1 (Bristol-Myers Squibb Company, priority 2012, published 2014).
Where “and” joins values, the source holds several entries; their conditions need not be identical. Equal values may be shown once.

Assays:
Endothelial lipase (EL) = molecular target: T1, Endothelial lipase (EL) (Homo sapiens, UniProt Q9Y5X9); assay: Endothelial lipase (EL) enzymatic assay, fluorescent substrate A10070 in DMPG vesicles; assay type: biochemical; conditions: EL from conditioned media of HT-1080 cells; compound preincubated 30 min at 37° C; read-out: EL IC50
T1 construct: HT-1080 cells that were transformed using RAGE technology (Athersys) to overexpress endogenous EL; endogenous in cells; conditioned medium used
T1 sequence (Q9Y5X9 21-500): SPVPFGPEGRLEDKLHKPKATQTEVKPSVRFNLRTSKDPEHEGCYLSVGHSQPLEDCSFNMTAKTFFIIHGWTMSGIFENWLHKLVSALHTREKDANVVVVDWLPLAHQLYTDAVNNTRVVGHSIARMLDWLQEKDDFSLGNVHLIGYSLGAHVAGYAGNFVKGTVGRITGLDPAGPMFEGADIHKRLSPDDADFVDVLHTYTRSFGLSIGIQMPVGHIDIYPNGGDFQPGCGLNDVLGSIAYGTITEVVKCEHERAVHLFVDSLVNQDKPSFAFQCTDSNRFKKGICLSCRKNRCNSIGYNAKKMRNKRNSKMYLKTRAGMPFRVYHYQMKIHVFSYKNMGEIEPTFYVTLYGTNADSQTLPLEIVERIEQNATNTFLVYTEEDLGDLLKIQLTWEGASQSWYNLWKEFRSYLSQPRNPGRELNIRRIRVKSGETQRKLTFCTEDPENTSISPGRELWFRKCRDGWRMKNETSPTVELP
Procedure, shortened: (§1)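 Substrate A10070 sits in sonicated DMPG vesicles at 0.11 mole fraction. Lipase and compound preincubated 30 min, 37° C, in HEPES pH 8.0 buffer with CaCl2.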

hepatic lipase (HL) = molecular target: T2, hepatic lipase (HL) (Homo sapiens, UniProt P11150); assay: Hepatic lipase (HL) enzymatic assay, fluorescent substrate A10070 in DMPG vesicles; assay type: biochemical; conditions: HL partially purified from conditioned media of COS cells; compound preincubated 30 min at 37° C; read-out: HL IC50
T2 construct: made in house; host or cells: COS cells (conditioned medium, partially purified)
T2 sequence (P11150 23-499): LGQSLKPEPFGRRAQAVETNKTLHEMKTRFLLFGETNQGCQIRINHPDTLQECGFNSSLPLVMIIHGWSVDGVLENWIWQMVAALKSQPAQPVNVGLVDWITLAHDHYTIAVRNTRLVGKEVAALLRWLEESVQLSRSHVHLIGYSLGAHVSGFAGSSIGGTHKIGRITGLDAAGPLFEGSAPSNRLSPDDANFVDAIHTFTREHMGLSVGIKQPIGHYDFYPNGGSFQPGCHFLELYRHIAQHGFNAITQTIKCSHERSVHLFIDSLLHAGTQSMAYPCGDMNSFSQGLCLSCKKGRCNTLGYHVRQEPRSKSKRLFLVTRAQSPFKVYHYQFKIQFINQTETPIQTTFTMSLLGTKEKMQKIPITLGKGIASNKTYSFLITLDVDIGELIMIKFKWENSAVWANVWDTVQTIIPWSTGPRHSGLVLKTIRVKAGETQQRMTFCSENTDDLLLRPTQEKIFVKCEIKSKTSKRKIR
Procedure, shortened: as §1

IC50 (Endothelial lipase (EL)) | IC50 (hepatic lipase (HL)) | Structure (SMILES)
2 nM | 3 nM | COCc1ccc(-c2ccc3nc(C(c4nnc(CNS(N)(=O)=O)o4)S(=O)(=O)Cc4ccccc4F)sc3c2)cc1 (stereo not shown) [Example 240, N-({5-[(2-fluorophenyl)methanesulfonyl ({6-[4-(methoxymethyl)phenyl]-1,3-benzothiazol-2-yl})methyl]-1,3,4-oxadiazol-2-yl}methyl) aminosulfonamide]
< 10 nM | 22 nM | CS(=O)(=O)C(c1nnc(CC2SC(=O)NC2=O)o1)c1nc2cc(C(F)(F)F)c(-c3ccccc3)cc2s1 (stereo not shown) [Example 164, 5-((5-((methylsulfonyl)(6-phenyl-5-(trifluoromethyl)-1,3-benzothiazol-2-yl)methyl)-1,3,4-oxadiazol-2-yl)methyl)-1,3-thiazolidine-2,4-dione]
2 nM | 46 nM | CS(=O)(=O)C(c1nnc(CNS(N)(=O)=O)o1)c1nc2ccc(-c3cccc(C(=O)N4CCC(O)CC4)c3)cc2s1 (stereo not shown) [Example 255, N-{[5-({6-[3-(4-hydroxypiperidine-1-carbonyl)phenyl]-1,3-benzothiazol-2-yl} (methanesulfonyl)methyl)-1,3,4-oxadiazol-2-yl]methyl} aminosulfonamide]
177 nM | 131 nM | CC1(Cc2nnc(C(c3nc4ccc(-c5cccc(C(=O)N6CC(F)(F)C6)c5)cc4s3)S(C)(=O)=O)o2)NC(=O)NC1=O (stereo not shown) [Example 208, 5-{[5-({6-[3-(3,3-difluoroazetidine-1-carbonyl)phenyl]-1,3-benzothiazol-2-yl} (methanesulfonyl)methyl)-1,3,4-oxadiazol-2-yl]methyl}-5-methyl-imidazolidine-2,4-dione]
< 10 nM | 105 nM | CN1CCN(C(=O)c2cccc(-c3ccc4nc(C(c5nnc(CNS(N)(=O)=O)o5)S(C)(=O)=O)sc4c3)c2)CC1 (stereo not shown) [Example 193, N-((5-((6-(3-((4-methyl-1-piperazinyl)carbonyl)phenyl)-1,3-benzothiazol-2-yl)(methylsulfonyl)methyl)-1,3,4-oxadiazol-2-yl)methyl)sulfamide]
2 nM | 16 nM | CS(=O)(=O)C(c1nnc(CNS(N)(=O)=O)o1)c1nc2ccc(-c3cccc(C(=O)Nc4nncs4)c3)cc2s1 (stereo not shown) [Example 256, 3-{2-[methanesulfonyl({5-[(sulfamoylamino)methyl]-1,3,4-oxadiazol-2-yl})methyl]-1,3-benzothiazol-6-yl}-N-(1,3,4-thiadiazol-2-yl)benzamide]
77 nM | 291 nM | CS(=O)(=O)C(c1nnc(CC2SC(=O)NC2=O)o1)c1nc2ccc(Br)cc2s1 (stereo not shown) [Example 100, 5-((5-((6-bromo-1,3-benzothiazol-2-yl)(methylsulfonyl)methyl)-1,3,4-oxadiazol-2-yl)methyl)-1,3-thiazolidine-2,4-dione]
8 nM | 37 nM | CC(C)NC(=O)c1cccc(-c2ccc3nc(C(c4nnc(CNS(N)(=O)=O)o4)S(C)(=O)=O)sc3c2)c1 (stereo not shown) [Example 259, 3-{2-[methanesulfonyl({5-[(sulfamoylamino)methyl]-1,3,4-oxadiazol-2-yl})methyl]-1,3-benzothiazol-6-yl}-N-(propan-2-yl) benzamide]
38 nM | 356 nM | COCCN(C)C(=O)c1cccc(-c2ccc3nc(C(c4nnc(CC5(C)NC(=O)NC5=O)o4)S(C)(=O)=O)sc3c2)c1 (stereo not shown) [Example 227, 3-{2-[methanesulfonyl({5-[(4-methyl-2,5-dioxo-imidazolidin-4-yl)methyl]-1,3,4-oxadiazol-2-yl})methyl]-1,3-benzothiazol-6-yl}-N-(2-methoxyethyl)-N-methylbenzamide]
< 10 nM | 143 nM | COCCS(=O)(=O)C(c1nnc(CNS(N)(=O)=O)o1)c1nc2ccc(-c3cnn(C)c3)cc2s1 (stereo not shown) [Example 116, N-((5-(((2-methoxyethyl)sulfonyl)(6-(1-methyl-1H-pyrazol-4-yl)-1,3-benzothiazol-2-yl)methyl)-1,3,4-oxadiazol-2-yl)methyl) sulfamide]
1 nM | 18 nM | CS(=O)(=O)C(c1nnc(CNS(N)(=O)=O)o1)c1nc2cc(-c3ccc(F)nc3)ccc2s1 (stereo not shown) [Example 233, N-[(5-{[5-(6-fluoropyridin-3-yl)-1,3-benzothiazol-2-yl] (methanesulfonyl)methyl}-1,3,4-oxadiazol-2-yl)methyl]aminosulfonamide]
4 nM | 17 nM | COCc1ccc(-c2ccc3nc(C(c4nnc(CNS(N)(=O)=O)o4)S(=O)(=O)Cc4cc(C(F)(F)F)cc(C(F)(F)F)c4)sc3c2)cc1 (stereo not shown) [Example 234, N-[(5-{[3,5-bis(trifluoromethyl)phenyl]methanesulfonyl({6-[4-(methoxymethyl)phenyl]-1,3-benzothiazol-2-yl})methyl}-1,3,4-oxadiazol-2-yl)methyl]aminosulfonamide]
24 nM | 14 nM | CC(C)(C)OC(=O)Cc1nnc(C(c2nc3ccc(-c4ccc(C(=O)N5CCOCC5)cc4)cc3s2)S(=O)(=O)Cc2ccccc2)o1 (stereo not shown) [Example 108, tert-butyl (5-((benzylsulfonyl)(6-(4-(4-morpholinylcarbonyl)phenyl)-1,3-benzothiazol-2-yl)methyl)-1,3,4-oxadiazol-2-yl)acetate]
< 10 nM | < 10 nM and 36 nM | CS(=O)(=O)C(c1nnc(CC2SC(=O)NC2=O)o1)c1nc2ccc(-c3ccnc(C#N)c3)cc2s1 (stereo not shown) [Example 103, 4-(2-((5-((2,4-dioxo-1,3-thiazolidin-5-yl)methyl)-1,3,4-oxadiazol-2-yl)(methylsulfonyl)methyl)-1,3-benzothiazol-6-yl)-2-pyridinecarbonitrile]
2 nM | 2300 nM | CC1(Cc2nnc(C(c3nc4ccc(-c5cccc(C(=O)N6CC[C@@H](O)C6)c5)cc4s3)S(C)(=O)=O)o2)NC(=O)NC1=O (stereo partly drawn) [Example 219, 5-({5-[(6-{3-[(3R)-3-hydroxypyrrolidine-1-carbonyl]phenyl}-1,3-benzothiazol-2-yl) (methanesulfonyl)methyl]-1,3,4-oxadiazol-2-yl}methyl)-5-methyl-imidazolidine-2,4-dione]
194 nM | 306 nM | COCCS(=O)(=O)C(c1nnc(CC(=O)NC2CC2)o1)c1nc2ccc(-c3ccc(F)nc3)cc2s1 (stereo not shown) [Example 250, N-cyclopropyl-2-(5-{[6-(6-fluoropyridin-3-yl)-1,3-benzothiazol-2-yl] (2-methoxyethanesulfonyl)methyl}-1,3,4-oxadiazol-2-yl)acetamide]
< 10 nM | < 10 nM | CC(C)(C)OC(=O)NS(=O)(=O)NCc1nnc(C(c2nc3ccc(-c4ccc(Cl)cc4)cc3s2)S(=O)(=O)Cc2ccccc2)o1 (stereo not shown) [Example 123, tert-butyl (((5-((benzylsulfonyl)(6-(4-chlorophenyl)-1,3-benzothiazol-2-yl)methyl)-1,3,4-oxadiazol-2-yl)methyl)sulfamoyl)carbamate]
14 nM | 45 nM | COCCNC(=O)c1cccc(-c2ccc3nc(C(c4nnc(CNS(N)(=O)=O)o4)S(C)(=O)=O)sc3c2)c1 (stereo not shown) [Example 262, 3-{2-[methanesulfonyl({5-[(sulfamoylamino)methyl]-1,3,4-oxadiazol-2-yl})methyl]-1,3-benzothiazol-6-yl}-N-(2-methoxyethyl) benzamide]
< 10 nM | < 10 nM | CS(=O)(=O)C(c1nnc(CS(N)(=O)=O)o1)c1nc2c(F)cc(-c3ccccc3)cc2s1 (stereo not shown) [Example 163, 1-(5-((4-fluoro-6-phenyl-1,3-benzothiazol-2-yl)(methylsulfonyl)methyl)-1,3,4-oxadiazol-2-yl)methanesulfonamide]
4 nM | 18 nM | NS(=O)(=O)NCc1nnc(C(c2nc3ccc(-c4ccc(F)nc4)cc3s2)S(=O)(=O)Cc2ccc(C(F)(F)F)cc2)o1 (stereo not shown) [Example 238, N-[(5-{[6-(6-fluoropyridin-3-yl)-1,3-benzothiazol-2-yl] [4-(trifluoromethyl)phenyl]methanesulfonylmethyl}-1,3,4-oxadiazol-2-yl)methyl]aminosulfonamide]
